Data reported in patent US10233173B2, “Substituted 1,2,3-triazoles as NR2B-selective NMDA modulators” (JANSSEN PHARMACEUTICA NV, priority 2016, dated 2019).

Biological target: human GluN1/GluN2B NMDA receptors (Homo sapiens, UniProt Q05586+Q13224)
Test: Cell-based calcium flux (FLIPR) assay on cloned human NR1/NR2B ion channels expressed in mammalian cells
Details: standard assay
Outline: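 Calcium influx followed by FLIPR fluorescence after 5 min compound exposure and a further 5 min co-agonist challenge: 10 μM glycine with glutamate at ~EC80 (standard) or EC40 (HTS).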

[1] = human GluN1/GluN2B, calcium flux (FLIPR), glutamate ~EC80
[2] = glutamate at ~EC80, FLIPR calcium flux

Chain of human GluN1/GluN2B NMDA receptors (Q13224 27-1484, other chains not shown): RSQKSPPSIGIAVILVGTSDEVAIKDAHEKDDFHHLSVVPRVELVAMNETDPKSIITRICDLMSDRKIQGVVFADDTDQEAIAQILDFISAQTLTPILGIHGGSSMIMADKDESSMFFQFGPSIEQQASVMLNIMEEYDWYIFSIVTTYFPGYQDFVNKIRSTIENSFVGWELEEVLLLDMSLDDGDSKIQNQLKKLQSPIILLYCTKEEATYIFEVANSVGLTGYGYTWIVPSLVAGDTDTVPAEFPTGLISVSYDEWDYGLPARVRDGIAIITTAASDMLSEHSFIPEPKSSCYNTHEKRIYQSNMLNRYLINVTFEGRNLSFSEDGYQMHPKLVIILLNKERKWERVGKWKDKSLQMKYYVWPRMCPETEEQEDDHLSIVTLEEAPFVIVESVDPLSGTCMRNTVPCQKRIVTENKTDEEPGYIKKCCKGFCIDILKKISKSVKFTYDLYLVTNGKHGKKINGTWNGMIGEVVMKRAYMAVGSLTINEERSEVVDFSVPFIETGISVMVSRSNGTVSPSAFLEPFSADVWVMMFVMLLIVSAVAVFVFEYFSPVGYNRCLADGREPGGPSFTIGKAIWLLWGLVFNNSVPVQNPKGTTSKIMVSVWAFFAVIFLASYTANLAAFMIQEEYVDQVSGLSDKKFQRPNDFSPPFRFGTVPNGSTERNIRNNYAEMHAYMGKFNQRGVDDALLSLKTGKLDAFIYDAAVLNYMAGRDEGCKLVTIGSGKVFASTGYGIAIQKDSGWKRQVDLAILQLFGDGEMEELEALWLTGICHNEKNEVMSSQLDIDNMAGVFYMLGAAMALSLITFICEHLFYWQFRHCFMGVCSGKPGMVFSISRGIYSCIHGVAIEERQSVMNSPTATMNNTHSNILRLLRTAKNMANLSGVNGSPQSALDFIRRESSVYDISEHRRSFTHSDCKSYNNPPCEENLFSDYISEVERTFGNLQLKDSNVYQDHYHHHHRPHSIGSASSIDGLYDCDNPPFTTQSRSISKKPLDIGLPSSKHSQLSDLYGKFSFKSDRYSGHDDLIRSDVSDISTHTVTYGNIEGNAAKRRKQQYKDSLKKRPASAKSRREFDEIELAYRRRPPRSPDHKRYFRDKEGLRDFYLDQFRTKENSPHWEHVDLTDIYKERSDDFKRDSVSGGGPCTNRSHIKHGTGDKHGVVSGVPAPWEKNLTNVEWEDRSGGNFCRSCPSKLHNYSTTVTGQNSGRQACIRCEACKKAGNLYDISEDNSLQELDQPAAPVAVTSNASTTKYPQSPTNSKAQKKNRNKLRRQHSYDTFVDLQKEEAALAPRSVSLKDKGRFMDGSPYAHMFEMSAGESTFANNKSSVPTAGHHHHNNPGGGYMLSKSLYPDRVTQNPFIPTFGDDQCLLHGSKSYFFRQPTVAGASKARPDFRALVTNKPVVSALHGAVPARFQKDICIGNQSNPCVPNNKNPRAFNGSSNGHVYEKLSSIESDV

Row | Compound | IC50 [1] | IC50 [2]
1 | CN(C)c1ccnc(OCc2cn(-c3cccc(C(F)F)c3)nn2)n1 [Example 277, 2-[[1-[3-(Difluoromethyl)phenyl]triazol-4-yl]methoxy]-N,N-dimethyl-pyrimidin-4-amine] | 0.041 µM | –
2 | COCc1ccnc(OCc2cn(-c3ccc(F)c(C(F)F)c3)nn2)n1 [Example 399, 2-[[1-[3-(Difluoromethyl)-4-fluoro-phenyl]triazol-4-yl]methoxy]-4-(methoxymethyl)pyrimidine] | – | 0.023 µM
3 | CCc1cnc(OCc2cn(-c3cccc(C(F)F)c3)nn2)nc1 [Example 91, 2-[[1-[3-(Difluoromethyl)phenyl]triazol-4-yl]methoxy]-5-ethyl-pyrimidine] | 0.004 µM | –
4 | Cc1cnc(OCc2cn(-c3ccnc(Br)c3)nn2)nc1 [Example 177, 2-[[1-(2-Bromo-4-pyridyl)triazol-4-yl]methoxy]-5-methyl-pyrimidine] | 0.172 µM | –
5 | FC(F)c1cccc(-n2cc(COc3nccc(C(F)F)n3)nn2)c1 [Example 274, 4-(Difluoromethyl)-2-[[1-[3-(difluoromethyl)phenyl]triazol-4-yl]methoxy]pyrimidine] | 0.813 µM | –
6 | CCc1cnc(OCc2cn(-c3ccccc3C)nn2)nc1 [Example 241, 5-Ethyl-2-[[1-(o-tolyl)triazol-4-yl]methoxy]pyrimidine] | 1.46 µM | –
7 | Fc1ccc(-n2cc(COc3ccc(Cl)cn3)nn2)cc1OC(F)F [Example 117, 5-Chloro-2-[[1-[3-(difluoromethoxy)-4-fluoro-phenyl]triazol-4-yl]methoxy]pyridine] | 0.073 µM | –
8 | Cc1cnc(OCc2cn(-c3ccc(Cl)c(OC(F)F)c3)nn2)cn1 [Example 34, 2-[[1-[4-Chloro-3-(difluoromethoxy)phenyl]triazol-4-yl]methoxy]-5-methyl-pyrazine] | 0.159 µM | –
9 | FCCOc1cnc(OCc2cn(-c3ccc(Cl)c(C(F)F)c3)nn2)nc1 [Example 636, 2-[[1-[4-Chloro-3-(difluoromethyl)phenyl]triazol-4-yl]methoxy]-5-(2-fluoroethoxy)pyrimidine] | – | 0.01 µM
10 | CC(=O)c1cnc(OCc2cn(-c3ccc(F)c(C(F)(F)F)c3)nn2)nc1 [Example 447, 1-[2-[[1-[4-Fluoro-3-(trifluoromethyl)phenyl]triazol-4-yl]methoxy]pyrimidin-5-yl]ethanone] | – | 0.014 µM
11 | CC(O)c1cnc(OCc2cn(-c3cccc(C(C)(F)F)c3)nn2)nc1 (racemic) [Example 310, (R/S)-1-[2-[[1-[3-(1,1-Difluoroethyl)phenyl]triazol-4-yl]methoxy]pyrimidin-5-yl]ethanol] | 0.037 µM | –
12 | CNc1nc(OCc2cn(-c3ccc(F)c(C(F)(F)F)c3)nn2)ncc1F [Example 451, 5-Fluoro-2-[[1-[4-fluoro-3-(trifluoromethyl)phenyl]triazol-4-yl]methoxy]-N-methyl-pyrimidin-4-amine] | – | 0.298 µM
13 | CC(F)(F)c1cccc(-n2cc(COc3ncc(C(C)(O)C(F)(F)F)cn3)nn2)c1 (racemic) [Example 305, (R/S)-2-[2-[[1-[3-(1,1-Difluoroethyl)phenyl]triazol-4-yl]methoxy]pyrimidin-5-yl]-1,1,1-trifluoro-propan-2-ol] | 0.496 µM | –
14 | Fc1ccc(-n2cc(COc3ncccn3)nn2)cc1C(F)F [Example 25, 2-((1-(3-(difluoromethyl)-4-fluorophenyl)-1H-1,2,3-triazol-4-yl)methoxy)pyrimidine] | 0.05 µM | –
15 | Cc1ccc(OCc2cn(-c3ccc(Cl)c(OC(F)F)c3)nn2)cn1 [Example 104, 5-[[1-[4-Chloro-3-(difluoromethoxy)phenyl]triazol-4-yl]methoxy]-2-methyl-pyridine] | 0.729 µM | –
16 | Cc1ccc(-n2cc(COc3ncccn3)nn2)cc1 [Example 256, 2-[[1-(p-Tolyl)triazol-4-yl]methoxy]pyrimidine] | 4.42 µM | –
17 | Fc1ccc(-n2cc(COc3ncc(N4CC(F)(F)C4)cn3)nn2)cc1OC(F)F [Example 508, 5-(3,3-Difluoroazetidin-1-yl)-2-[[1-[3-(difluoromethoxy)-4-fluoro-phenyl]triazol-4-yl]methoxy]pyrimidine] | – | 0.019 µM
18 | FC1(F)Oc2ccc(-n3cc(COc4ncc(Cl)cn4)nn3)cc2O1 [Example 356, 5-Chloro-2-[[1-(2,2-difluoro-1,3-benzodioxol-5-yl)triazol-4-yl]methoxy]pyrimidine] | 0.185 µM | –
19 | Cc1cnc(OCc2cn(-c3ccc(C(F)(F)F)s3)nn2)nc1 [Example 120, 5-Methyl-2-((1-(5-(trifluoromethyl)thiophen-2-yl)-1H-1,2,3-triazol-4-yl)methoxy)pyrimidine] | 0.005 µM | –
20 | COc1cnc(OCc2cn(-c3ccc(F)c(C(F)(F)F)c3)nn2)nc1 [Example 73, 2-[[1-[4-Fluoro-3-(trifluoromethyl)phenyl]triazol-4-yl]methoxy]-5-methoxy-pyrimidine] | 0.008 µM | –
21 | CC(C)(O)c1cnc(OCc2cn(-c3ccc(F)c(C4CCC4)c3)nn2)nc1 [Example 178, 2-[2-[[1-(3-Cyclobutyl-4-fluoro-phenyl)triazol-4-yl]methoxy]pyrimidin-5-yl]propan-2-ol] | 0.349 µM | –

Row | Compound | IC50 [1] | IC50 [2]
22 | Cc1cnc(OCc2cn(-c3ccc(F)c(C(C)(F)F)c3)nn2)nc1C [Example 573, 2-[[1-[3-(1,1-Difluoroethyl)-4-fluoro-phenyl]triazol-4-yl]methoxy]-4,5-dimethyl-pyrimidine] | – | 0.019 µM
23 | CC(F)(F)c1cccc(-n2cc(COc3ncc(C(F)F)cn3)nn2)c1 [Example 302, 2-[[1-[3-(1,1-Difluoroethyl)phenyl]triazol-4-yl]methoxy]-5-(difluoromethyl)pyrimidine] | 0.002 µM | –
24 | Cc1cc(-n2cc(COc3ncc(C(F)F)cn3)nn2)c(F)cc1F [Example 656, 5-(Difluoromethyl)-2-[[1-(2,4-difluoro-5-methyl-phenyl)triazol-4-yl]methoxy]pyrimidine] | – | 1.51 µM
25 | CC(C)(O)c1cnc(OCc2cn(-c3ccc(F)c(C(C)(F)F)c3)nn2)nc1 [Example 566, 2-[2-[[1-[3-(1,1-Difluoroethyl)-4-fluoro-phenyl]triazol-4-yl]methoxy]pyrimidin-5-yl]propan-2-ol] | – | 0.008 µM
26 | FC1(F)Oc2ccc(-n3cc(COc4ncccn4)nn3)cc2O1 [Example 355, 2-[[1-(2,2-Difluoro-1,3-benzodioxol-5-yl)triazol-4-yl]methoxy]pyrimidine] | 0.238 µM | –
27 | Fc1ccc(-n2cc(COc3ccc(Cl)cn3)nn2)cc1C(F)(F)F [Example 428, 5-Chloro-2-[[1-[4-fluoro-3-(trifluoromethyl)phenyl]triazol-4-yl]methoxy]pyridine] | – | 0.796 µM
28 | CC(F)(F)c1cc(-n2cc(COc3ncc(S(C)(=O)=O)cn3)nn2)ccc1F [Example 584, 2-[[1-[3-(1,1-Difluoroethyl)-4-fluoro-phenyl]triazol-4-yl]methoxy]-5-methylsulfonyl-pyrimidine] | – | 0.199 µM
29 | Cc1nc(OCc2cn(-c3ccc(F)c(C(F)(F)F)c3)nn2)ncc1N1CCC1 [Example 457, 5-(Azetidin-1-yl)-2-((1-(3-(trifluoromethyl)-4-fluorophenyl)-1H-1,2,3-triazol-4-yl)methoxy)-4-methylpyrimidine] | – | 0.296 µM
30 | COCc1ccnc(OCc2cn(-c3ccc(Cl)c(C(F)F)c3)nn2)n1 [Example 627, 2-[[1-[4-Chloro-3-(difluoromethyl)phenyl]triazol-4-yl]methoxy]-4-(methoxymethyl)pyrimidine] | – | 0.038 µM
31 | CC(C)c1cccc(-n2cc(COc3ncc(F)cn3)nn2)c1 [Example 263, 5-Fluoro-2-[[1-(3-isopropylphenyl)triazol-4-yl]methoxy]pyrimidine] | 0.227 µM | –
32 | Cc1cnc(OCc2cn(-c3ccc(F)c(Br)c3)nn2)nc1 [Example 16, 2-[[1-(3-Bromo-4-fluoro-phenyl)triazol-4-yl]methoxy]-5-methylpyrimidine] | 0.001 µM | –
33 | FC(F)Oc1cc(-n2cc(COc3cccnc3)nn2)ccc1Cl [Example 5, 3-[[1-[4-Chloro-3-(difluoromethoxy)phenyl]triazol-4-yl]methoxy]pyridine] | 0.333 µM | –
34 | Cc1cc(-n2cc(COc3ncc(F)c(C)n3)nn2)ccc1F [Example 481, 5-Fluoro-2-[[1-(4-fluoro-3-methyl-phenyl)triazol-4-yl]methoxy]-4-methyl-pyrimidine] | – | 0.002 µM
35 | Cc1cnc(OCc2nnn(-c3cccc(C(F)F)c3)c2C)nc1 [Example 149] | 0.952 µM | –
36 | Cc1cnc(OCc2cn(-c3ccc(F)c(C(C)(F)F)c3)nn2)nc1N [Example 576, 2-[[1-[3-(1,1-Difluoroethyl)-4-fluoro-phenyl]triazol-4-yl]methoxy]-5-methyl-pyrimidin-4-amine] | – | 0.017 µM
37 | CC(Oc1ncccn1)c1cn(-c2ccc(Cl)c(OC(F)F)c2)nn1 (single isomer, unassigned) [Example 55, (S*)-2-[1-[1-[4-Chloro-3-(difluoromethoxy)phenyl]triazol-4-yl]ethoxy]pyrimidine] | 0.008 µM | –
38 | COc1cnc(OCc2cn(-c3ccc(C)cc3)nn2)nc1 [Example 258, 5-Methoxy-2-[[1-(p-tolyl)triazol-4-yl]methoxy]pyrimidine] | 0.225 µM | –
39 | Cc1cnc(OCc2cn(-c3ccc(F)c(Br)c3)nn2)nc1C [Example 85, 2-[[1-(3-Bromo-4-fluoro-phenyl)triazol-4-yl]methoxy]-4,5-dimethyl-pyrimidine] | 0.003 µM | –
40 | CC(F)(F)c1cc(-n2cc(COc3nccc(N4CCCCC4)n3)nn2)ccc1F [Example 592, 2-[[1-[3-(1,1-Difluoroethyl)-4-fluoro-phenyl]triazol-4-yl]methoxy]-4-(1-piperidyl)pyrimidine] | – | 0.271 µM
41 | COC(C)(C)c1cnc(OCc2cn(-c3ccc(F)c(C(C)(F)F)c3)nn2)nc1 [Example 567, 2-[[1-[3-(1,1-Difluoroethyl)-4-fluoro-phenyl]triazol-4-yl]methoxy]-5-(1-methoxy-1-methyl-ethyl)pyrimidine] | – | 4.63 µM
42 | COc1ccnc(OCc2cn(-c3cccc(C(C)(F)F)c3)nn2)n1 [Example 307, 2-[[1-[3-(1,1-Difluoroethyl)phenyl]triazol-4-yl]methoxy]-4-methoxy-pyrimidine] | 0.033 µM | –
